Reference: US20250154172A1, “PRMT5 INHIBITORS AND USES THEREOF” (Gilead Sciences, Inc., priority 2023, published 2025)

tested on: HCT116 MTAP-deleted cell lines; assay: Cell viability assay for HCT116 isogenic pair (CellTitre-Glo, 7 days); format: cell-based; settings: Homo sapiens, HCT-116, 168 h, 7 days of treatment, cell line not given
Protocol: Control compounds were analyzed in parallel each time for quality control.
In Brief, on Day −1, a serial dilution of stock compounds in DMSO was performed using BioMek liquid handlers and dispensed using Echo acoustic dispenser into 384 well plates. Both tool compounds and sample compounds were spotted in the same plate for a dose response of PRMT5 inhibitors. Compound plates were stored as frozen until the cells were ready for seeding.
On Day 0, 100 HCT WT or HCT116 MTAP-deleted cells were seeded in compound-containing 384 well plates (50 μl per well) in RPMI 1640 media supplemented with 10% heat inactivated fetal bovine serum, Glutamax and penicillin streptomycin using EL460 liquid dispenser 5 μl cassette (BioTek, part no. 7170011). After equilibrating the plate in room temperature, the cells were incubated for 7 days inside the sealed incubator set at 37° C. with 90% humidity and 5% CO2.
On Day 7, the viability of cells was measured using a CTG assay kit (CellTitre-Glo; Promega cat no. G7573). Shortly, 40 μl per well of luminescent cell viability assay reagent were dispensed using EL460 liquid dispenser 5 μl cassette. CTG luminescence signal was measured using an EnVision plate reader (PerkinElmer) in accordance with manufacturer's instruction. The CCso values for each compound after 7 days of treatment were calculated using 4 parameter non-linear logistical curve fit.
For the cell viability assay ie CC50 shown in nM in Table 3.

In order of falling CC50:
1. CN(C(=O)c1cc2c(cn1)nc(N)c1cnn(C)c12)[C@@H]1c2ccc(C(F)(F)F)cc2[C@@H]2C[C@H]12 (single isomer, unassigned) [Example Ca-28]  1290 nM
2. Cn1ncc2c(N)nc3cnc(C(=O)N4CCO[C@@H]5Cc6cc(C(F)(F)F)cc(F)c6[C@@H]54)cc3c21 [Example Ca-51, (4-amino-1-methyl-1H-pyrazolo[4,3-c][1,7]naphthyridin-8-yl)((4aS,9aR)-5-fluoro-7-(trifluoromethyl)-2,3,9,9a-tetrahydroindeno[2,1-b][1,4]oxazin-4(4aH)-yl)methanone]  195 nM
3. Cn1ncc2c(N)nc3ccc(C(=O)N4CC[C@@H]5Oc6cc(C(F)(F)F)ccc6[C@@H]54)cc3c21 (racemic) [Example Ca-55, Rac-(4-amino-1-methyl-1H-pyrazolo[4,3-c]quinolin-8-yl)((3aS,8bS)-6-(trifluoromethyl)-2,3,3a,8b-tetrahydro-1H-benzofuro[3,2-b]pyrrol-1-yl)methanone]  106 nM
4. Cn1ncc2c(N)nc3cnc(C(=O)N4CC[C@@H]5C[C@H]4c4ccc(OC(F)F)cc45)cc3c21 [Example Ca-16, (4-amino-1-methyl-1H-pyrazolo[4,3-c][1,7]naphthyridin-8-yl)((1S,5R)-7-(difluoromethoxy)-1,3,4,5-tetrahydro-2H-1,5-methanobenzo[c]azepin-2-yl)methanone]  91 nM
5. C[C@@H]1C[C@@H]2CCc3cc(C(F)(F)F)ccc3[C@@H]2N(C(=O)c2cc3c(cn2)nc(N)c2cnn(C)c23)C1 (racemic) [Example Ca-39, (Rac)-(4-amino-1-methyl-1H-pyrazolo[4,3-c][1,7]naphthyridin-8-yl)((3R,4aS,10bR)-3-methyl-8-(trifluoromethyl)-3,4,4a,5,6,10b-hexahydrobenzo[h]quinolin-1(2H)-yl)methanone]  79 nM
6. C[C@@H]1CN(C(=O)c2cc3c(cn2)nc(N)c2cnn(C)c23)[C@H]2c3ccc(Br)c(F)c3C[C@H]2O1 (single isomer, unassigned) [Example Ca-30]  75 nM
7. Cn1ncc2c(N)nc3cnc(C(=O)N4CCO[C@@H]5Cc6cc(C7CC7)ccc6[C@@H]54)cc3c21 [Example Ca-34, (4-amino-1-methyl-1H-pyrazolo[4,3-c][1,7]naphthyridin-8-yl)((4aS,9aR)-7-cyclopropyl-2,3,9,9a-tetrahydroindeno[2,1-b][1,4]oxazin-4(4aH)-yl)methanone]  62 nM
8. Cn1ncc2c3cc(C(=O)N4CCC[C@@H]5Oc6cc(C(F)(F)F)ccc6[C@@H]54)ncc3nc(N)c21 [Example Ca-43, (4-amino-3-methyl-3H-pyrazolo[3,4-c][1,7]naphthyridin-8-yl)((4aS,9bS)-7-(trifluoromethyl)-3,4,4a,9b-tetrahydrobenzofuro[3,2-b]pyridin-1(2H)-yl)methanone]  56 nM
9. Nc1nc2cnc(C(=O)N3CCC[C@@H]4Oc5nc(C(F)(F)F)ccc5[C@@H]43)cc2c2c1COC2 (racemic) [Example Ca-32, Rac-(4-amino-1,3-dihydrofuro[3,4-c][1,7]naphthyridin-8-yl)((4aS,9bS)-7-(trifluoromethyl)-3,4,4a,9b-tetrahydrofuro[2,3-b:4,5-b′]dipyridin-1(2H)-yl)methanone]  54 nM
10. Cn1ncc2c(N)nc3ccc(C(=O)N4CCO[C@@H]5Cc6cc(Br)ccc6[C@@H]54)cc3c21 (racemic) [Example Ca-12, (Rac)-(4-amino-1-methyl-1H-pyrazolo[4,3-c]quinolin-8-yl)(7-bromo-2,3,9,9a-tetrahydroindeno[2,1-b][1,4]oxazin-4(4aH)-yl)methanone]  53 nM
11. Cn1ncc2c(N)nc3ccc(C(=O)N4CCOC5CCc6ccccc6C54)cc3c21 (stereo not shown) [Example Ca-20, 2,3,4a,5,6,10b-hexahydrobenzo[f][1,4]benzoxazin-1-yl-(4-amino-1-methyl-pyrazolo[4,3-c]quinolin-8-yl)methanone]  46 nM
12. Nc1nc2cnc(C(=O)N3CC[C@H]4C[C@@H]3c3ccc(C(F)(F)F)nc3O4)cc2c2c1COC2 [Example Ca-18, (4-amino-1,3-dihydrofuro[3,4-c][1,7]naphthyridin-8-yl)((2S,6R)-9-(trifluoromethyl)-3,4-dihydro-2H-2,6-methanopyrido[2,3-b][1,5]oxazocin-5(6H)-yl)methanone]  34 nM
13. C[C@@H]1CC[C@@H]2Oc3cc(OC(F)(F)F)ccc3[C@@H]2N1C(=O)c1cc2c(cn1)nc(N)c1cnn(C)c12 (racemic) [Example Ca-41, (Rac)-(4-amino-1-methyl-1H-pyrazolo[4,3-c][1,7]naphthyridin-8-yl)((2R,4aS,9bS)-2-methyl-7-(trifluoromethoxy)-3,4,4a,9b-tetrahydrobenzofuro[3,2-b]pyridin-1(2H)-yl)methanone]  30 nM
14. Nc1nc2cnc(C(=O)N3CCC[C@@H]4Oc5cc(C(F)(F)F)ccc5[C@@H]43)cc2c2c1COC2 (racemic) [Example Ca-1, (Rac)-(4-amino-1,3-dihydrofuro[3,4-c][1,7]naphthyridin-8-yl)((4aS,9bS)-7-(trifluoromethyl)-3,4,4a,9b-tetrahydrobenzofuro[3,2-b]pyridin-1(2H)-yl)methanone]  26 nM
15. CN(C(=O)c1cc2c(cn1)nc(N)c1cnn(C)c12)[C@H]1c2ccc(C(F)(F)F)cc2[C@H]2C[C@H]21 (single isomer, unassigned) [Example Ca-26]  25 nM
16. COc1ccc2c(c1)CO[C@H]1CCCN(C(=O)c3ccc4nc(N)c5cnn(C)c5c4c3)[C@@H]21 (racemic) [Example Ca-8, Rac-(4-amino-1-methyl-1H-pyrazolo[4,3-c]quinolin-8-yl)((4aS,10bS)-8-methoxy-2,3,4,4a,6,10b-hexahydro-1H-isochromeno[4,3-b]pyridin-1-yl)methanone]  23 nM
17. C[C@@H]1CN(C(=O)c2cc3c(cn2)nc(N)c2cnn(C)c23)[C@H]2c3ccc(Cl)cc3C[C@H]2O1 (single isomer, unassigned) [Example Ca-37]  22 nM
18. C[C@H]1CN(C(=O)c2cc3c(cn2)nc(N)c2cnn(C)c23)[C@H]2c3ccc(C(F)(F)F)cc3C[C@H]2O1 [Example Ca-13, (4-amino-1-methyl-1H-pyrazolo[4,3-c][1,7]naphthyridin-8-yl)((2S,4aS,9aR)-2-methyl-7-(trifluoromethyl)-2,3,9,9a-tetrahydroindeno[2,1-b][1,4]oxazin-4(4aH)-yl)methanone]  17 nM
19. Cn1ncc2c(N)nc3cnc(C(=O)N4CCC[C@@H]5Oc6cc(OC(F)F)c(F)cc6[C@@H]54)cc3c21 (racemic) [Example Ca-21, (Rac)-(4-amino-1-methyl-11H-pyrazolo[4,3-c][1,7]naphthyridin-8-yl)(7-(difluoromethoxy)-8-fluoro-3,4,4a,9b-tetrahydrobenzofuro[3,2-b]pyridin-1(2H)-yl)methanone]  15 nM
20. [2H]C1([2H])CC[C@@H]2Oc3cc(C(F)(F)F)ccc3[C@@H]2N1C(=O)c1cc2c3c(c(N)nc2cn1)COC3 [Example Ca-48, (4-amino-1,3-dihydrofuro[3,4-c][1,7]naphthyridin-8-yl)((4aS,9bS)-7-(trifluoromethyl)-3,4,4a,9b-tetrahydrobenzofuro[3,2-b]pyridin-1(2H)-yl-2,2-d2)methanone]  12 nM
21. [2H]C1([2H])CC[C@@H]2Oc3cc(C(F)(F)F)cc(F)c3[C@@H]2N1C(=O)c1cc2c3c(c(N)nc2cn1)COC3 [Example Ca-58, (4-amino-1,3-dihydrofuro[3,4-c][1,7]naphthyridin-8-yl)((4aS,9bS)-9-fluoro-7-(trifluoromethyl)-3,4,4a,9b-tetrahydrobenzofuro[3,2-b]pyridin-1(2H)-yl-2,2-d2)methanone]  9 nM
22. C[C@@H]1C[C@@H]2Oc3cc(C(F)(F)F)ccc3[C@@H]2N(C(=O)c2cc3c(cn2)nc(N)c2cnn(C)c23)C1 [Example Ca-17, (4-amino-1-methyl-1H-pyrazolo[4,3-c][1,7]naphthyridin-8-yl)((3R,4aS,9bS)-3-methyl-7-(trifluoromethyl)-3,4,4a,9b-tetrahydrobenzofuro[3,2-b]pyridin-1(2H)-yl)methanone]  7 nM
23. Cn1ncc2c(N)nc3cnc(C(=O)N4CCC[C@@H]5Oc6cc(C(F)(F)F)ccc6[C@@H]54)cc3c21 [Example Ca-19, (4-amino-1-methyl-1H-pyrazolo[4,3-c][1,7]naphthyridin-8-yl)((4aS,9bS)-7-(trifluoromethyl)-3,4,4a,9b-tetrahydrobenzofuro[3,2-b]pyridin-1(2H)-yl)methanone]  6 nM
24. Cn1ncc2c(N)nc3cc(Cl)c(C(=O)N4CCC[C@H]5Oc6cc(C(F)(F)F)ccc6[C@H]54)cc3c21 (stereo in doubt) [Example Ca-3, (4-amino-7-chloro-1-methyl-1H-pyrazolo[4,3-c]quinolin-8-yl)((4aR,9bR)-7-(trifluoromethyl)-3,4,4a,9b-tetrahydrobenzofuro[3,2-b]pyridin-1(2H)-yl)methanone]  5 nM
25. Cn1ncc2c(N)nc3cnc(C(=O)N4CC[C@H]5C[C@@H]4c4ccc(C(F)(F)F)cc4O5)cc3c21 [Example Ca-45, (4-amino-1-methyl-1H-pyrazolo[4,3-c][1,7]naphthyridin-8-yl)((2S,6R)-9-(trifluoromethyl)-3,4-dihydro-2H-2,6-methanobenzo[b][1,5]oxazocin-5(6H)-yl)methanone]  5 nM
